In patent US20250205344A1, “2,4-DIOXOTETRAHYDROPYRIMIDINYL DERATIVES AS DEGRONS IN PROTACS” (GLAXOSMITHKLINE INTELLECTUAL PROPERTY DEVELOPMENT LIMITED, priority 2022, published 2025):
Where a name gives a salt, the structure may show the parent alone.

Target: T1, Androgen Receptor (Homo sapiens, UniProt P10275, T878A)
T1 construct: the AR gene was modified, using CRISPR/Cas9 editing, so the expressed AR protein included an 11 amino acid HiBiT tag; endogenous in cells; host or cells: clonal LnCaP-derived line, AR gene edited by CRISPR/Cas9
T1 sequence (P10275 whole entry T878A): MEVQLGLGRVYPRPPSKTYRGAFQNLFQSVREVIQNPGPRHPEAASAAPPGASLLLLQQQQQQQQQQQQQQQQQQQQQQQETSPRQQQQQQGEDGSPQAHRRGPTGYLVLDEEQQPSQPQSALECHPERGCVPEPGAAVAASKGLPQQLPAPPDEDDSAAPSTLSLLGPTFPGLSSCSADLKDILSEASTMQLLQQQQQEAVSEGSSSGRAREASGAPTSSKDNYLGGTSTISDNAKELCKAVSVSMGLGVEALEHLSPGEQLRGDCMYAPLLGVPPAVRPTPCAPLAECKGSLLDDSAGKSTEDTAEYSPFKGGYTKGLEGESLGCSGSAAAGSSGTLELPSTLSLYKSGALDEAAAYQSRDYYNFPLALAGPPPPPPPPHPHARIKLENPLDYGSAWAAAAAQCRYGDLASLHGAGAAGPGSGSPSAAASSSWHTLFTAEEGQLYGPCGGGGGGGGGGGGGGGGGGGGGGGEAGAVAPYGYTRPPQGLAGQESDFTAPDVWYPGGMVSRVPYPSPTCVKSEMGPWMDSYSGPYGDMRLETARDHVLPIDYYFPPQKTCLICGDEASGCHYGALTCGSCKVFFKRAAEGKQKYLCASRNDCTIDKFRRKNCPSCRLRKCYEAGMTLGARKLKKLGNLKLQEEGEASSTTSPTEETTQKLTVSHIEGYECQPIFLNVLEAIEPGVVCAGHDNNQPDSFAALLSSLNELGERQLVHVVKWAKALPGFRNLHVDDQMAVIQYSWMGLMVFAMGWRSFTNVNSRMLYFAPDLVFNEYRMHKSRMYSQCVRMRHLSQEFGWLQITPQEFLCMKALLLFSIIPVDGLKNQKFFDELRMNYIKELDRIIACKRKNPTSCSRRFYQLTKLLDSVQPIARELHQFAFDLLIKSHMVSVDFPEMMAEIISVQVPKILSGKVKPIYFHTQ
T1 sequence (Q96SW2 whole entry partner): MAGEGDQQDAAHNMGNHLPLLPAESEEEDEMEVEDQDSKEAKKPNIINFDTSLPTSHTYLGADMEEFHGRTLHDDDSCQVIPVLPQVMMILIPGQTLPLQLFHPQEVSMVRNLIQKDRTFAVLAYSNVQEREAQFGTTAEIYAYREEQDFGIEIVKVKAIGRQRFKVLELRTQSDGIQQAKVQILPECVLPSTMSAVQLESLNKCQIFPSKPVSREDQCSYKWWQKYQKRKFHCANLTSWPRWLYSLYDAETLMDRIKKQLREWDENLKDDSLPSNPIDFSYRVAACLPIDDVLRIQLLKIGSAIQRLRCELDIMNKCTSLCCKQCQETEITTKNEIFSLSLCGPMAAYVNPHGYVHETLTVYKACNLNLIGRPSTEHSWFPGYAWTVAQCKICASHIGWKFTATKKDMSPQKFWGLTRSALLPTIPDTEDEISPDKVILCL
T1 sequence (Q16531 whole entry partner): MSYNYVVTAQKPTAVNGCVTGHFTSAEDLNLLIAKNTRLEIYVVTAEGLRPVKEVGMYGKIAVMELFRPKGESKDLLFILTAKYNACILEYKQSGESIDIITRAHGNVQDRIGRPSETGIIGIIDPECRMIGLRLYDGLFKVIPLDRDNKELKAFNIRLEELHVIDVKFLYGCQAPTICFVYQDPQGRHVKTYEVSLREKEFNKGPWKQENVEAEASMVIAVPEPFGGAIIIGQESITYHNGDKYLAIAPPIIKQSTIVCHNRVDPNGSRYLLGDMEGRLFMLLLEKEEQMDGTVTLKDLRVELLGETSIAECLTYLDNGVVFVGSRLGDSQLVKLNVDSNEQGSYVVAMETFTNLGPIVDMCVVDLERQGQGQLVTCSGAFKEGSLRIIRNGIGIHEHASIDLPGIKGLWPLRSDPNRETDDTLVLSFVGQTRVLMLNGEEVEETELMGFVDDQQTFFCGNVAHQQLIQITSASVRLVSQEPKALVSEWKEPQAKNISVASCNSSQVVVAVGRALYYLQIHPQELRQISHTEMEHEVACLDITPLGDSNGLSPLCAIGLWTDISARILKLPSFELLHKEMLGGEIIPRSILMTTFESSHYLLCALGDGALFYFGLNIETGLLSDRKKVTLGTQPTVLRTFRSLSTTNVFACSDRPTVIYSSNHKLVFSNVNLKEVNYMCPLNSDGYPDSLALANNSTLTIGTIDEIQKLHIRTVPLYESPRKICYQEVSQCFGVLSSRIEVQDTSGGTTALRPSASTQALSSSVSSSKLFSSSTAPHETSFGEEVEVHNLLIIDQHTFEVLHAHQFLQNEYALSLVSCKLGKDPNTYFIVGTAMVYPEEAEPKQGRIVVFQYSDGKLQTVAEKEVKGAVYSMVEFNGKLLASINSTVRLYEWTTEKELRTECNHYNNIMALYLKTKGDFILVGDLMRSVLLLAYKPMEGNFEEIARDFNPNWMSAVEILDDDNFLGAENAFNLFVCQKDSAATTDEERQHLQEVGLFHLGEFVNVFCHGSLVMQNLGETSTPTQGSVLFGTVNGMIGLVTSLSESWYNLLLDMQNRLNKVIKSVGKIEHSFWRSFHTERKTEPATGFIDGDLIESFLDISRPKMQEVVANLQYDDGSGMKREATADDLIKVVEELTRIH
Experiment: Androgen Receptor Degradation Assay (Nano-Glo HiBiT)
Format: cell-based
Conditions: LNCaP, 18 h, HiBiT-tagged AR in human LnCaP cells, read-out: mean asymptote max
In short: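 LnCaP cells with CRISPR-knocked-in N-terminal HiBiT-tagged AR (10,000/well) treated 18 h at 37 °C with PROTACs over 11 threefold concentrations; lytic HiBiT luminescence normalised to DMSO (0%) and cell-free (100%) controls. Relative DC50 = 4-parameter fit inflection; absolute DC50 = 50% degradation interpolation; Dmax = maximum observed degradation.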

Compound	Dmax
CC1(C)[C@H](NC(=O)c2ccc(N3CCC(CN4CCC(n5ncc6c(N7CCC(=O)NC7=O)nccc65)CC4)CC3)nc2)C(C)(C)[C@H]1Oc1cnc(C#N)c(Cl)c1 [EAR257, N-((1r,3r)-3-((5-Chloro-6-cyanopyridin-3-yl)oxy)-2,2,4,4-tetramethylcyclobutyl)-6-(4-((4-(4-(2,4-dioxotetrahydropyrimidin-1(2H)-yl)-1H-pyrazolo[4,3-c]pyridin-1-yl)piperidin-1-yl)methyl)piperidin-1-yl)nicotinamide]	≥ 50%
CC1(C)[C@H](NC(=O)c2ccc(N3CCC(CN4CCC(n5ccc6c(N7CCC(=O)NC7=O)cncc65)CC4)CC3)nn2)C(C)(C)[C@H]1Oc1ccc(C#N)c(Cl)c1 [EAR56, N-((1r,3r)-3-(3-Chloro-4-cyanophenoxy)-2,2,4,4-tetramethylcyclobutyl)-6-(4-((4-(4-(2,4-dioxotetrahydropyrimidin-1(2H)-yl)-1H-pyrrolo[2,3-c]pyridin-1-yl)piperidin-1-yl)methyl)piperidin-1-yl)pyridazine-3-carboxamide]	≥ 50%
N#Cc1ccc(O[C@H]2CC[C@H](NC(=O)c3ccc(N4CCC(CN5CCC(n6ncc7c(N8CCC(=O)NC8=O)cccc76)CC5)C4)nn3)CC2)cc1Cl (stereo partly drawn) [EAR152, N-((1r,4r)-4-(3-Chloro-4-cyanophenoxy)cyclohexyl)-6-(3-((4-(4-(2,4-dioxotetrahydropyrimidin-1(2H)-yl)-1H-indazol-1-yl)piperidin-1-yl)methyl)pyrrolidin-1-yl)pyridazine-3-carboxamide, formic acid salt]	≥ 50%
CC1(C)C(=O)N(c2ccc(C#N)c(C(F)(F)F)c2)C(=S)N1c1ccc(N2CCC(CN3CCC(n4ccc5c(N6CCC(=O)NC6=O)cncc54)CC3)CC2)cc1 [EAR101, 4-(3-(4-(4-((4-(4-(2,4-Dioxotetrahydropyrimidin-1(2H)-yl)-1H-pyrrolo[2,3-c]pyridin-1-yl)piperidin-1-yl)methyl)piperidin-1-yl)phenyl)-4,4-dimethyl-5-oxo-2-thioxoimidazolidin-1-yl)-2-(trifluoromethyl)benzonitrile]	≥ 50%
CN(c1ccc(C#N)c(Cl)c1)[C@H]1CC[C@H](NC(=O)c2ccc(N3CCC(CN4CCC(n5ccc6c(N7CCC(=O)NC7=O)cc(F)cc65)CC4)CC3)nn2)CC1 [EAR201, N-((1r,4r)-4-((3-Chloro-4-cyanophenyl)(methyl)amino)cyclohexyl)-6-(4-((4-(4-(2,4-dioxotetrahydropyrimidin-1(2H)-yl)-6-fluoro-1H-indol-1-yl)piperidin-1-yl)methyl)piperidin-1-yl)pyridazine-3-carboxamide hydrochloride]	≥ 50%
CC1(C)CCN(c2ccc(C(=O)N[C@H]3CC[C@H](Oc4ccc(C#N)c(Cl)c4)CC3)nn2)CC1CN1CCC(n2ncc3c(N4CCC(=O)NC4=O)cccc32)CC1 (stereo partly drawn) [EAR222, N-((1r,4r)-4-(3-chloro-4-cyanophenoxy)cyclohexyl)-6-(3-((4-(4-(2,4-dioxotetrahydropyrimidin-1(2H)-yl)-1H-indazol-1-yl)piperidin-1-yl)methyl)-4,4-dimethylpiperidin-1-yl)pyridazine-3-carboxamide]	≥ 50%
N#Cc1ccc(O[C@H]2CC[C@H](NC(=O)c3ccc(N4CCOC(CCN5CCC(n6ncc7c(N8CCC(=O)NC8=O)cccc76)CC5)C4)nn3)CC2)cc1Cl (stereo partly drawn) [EAR243, N-((1r,4r)-4-(3-chloro-4-cyanophenoxy)cyclohexyl)-6-(2-(2-(4-(4-(2,4-dioxotetrahydropyrimidin-1(2H)-yl)-1H-indazol-1-yl)piperidin-1-yl)ethyl)morpholino)pyridazine-3-carboxamide]	≥ 50%
N#Cc1ccc(O[C@H]2CC[C@H](NC(=O)c3cnc(N4CCC(CN5CCC(n6ncc7c(N8CCC(=O)NC8=O)cc(F)cc76)CC5)CC4)cn3)CC2)cc1Cl [EAR217, N-((1r,4r)-4-(3-chloro-4-cyanophenoxy)cyclohexyl)-5-(4-((4-(4-(2,4-dioxotetrahydropyrimidin-1(2H)-yl)-6-fluoro-1H-indazol-1-yl)piperidin-1-yl)methyl)piperidin-1-yl)pyrazine-2-carboxamide hydrochloride]	≥ 50%
CN(CCCN1CCC(n2ncc3c(N4CCC(=O)NC4=O)cccc32)CC1)c1ccc(C(=O)N[C@H]2CC[C@H](Oc3ccc(C#N)c(Cl)c3)CC2)nn1 [EAR151, N-((1r,4r)-4-(3-Chloro-4-cyanophenoxy)cyclohexyl)-6-((3-(4-(4-(2,4-dioxotetrahydropyrimidin-1(2H)-yl)-1H-indazol-1-yl)piperidin-1-yl)propyl)(methyl)amino)pyridazine-3-carboxamide, formic acid salt]	≥ 50%

Now from value to compound:

Dmax	Compound
≥ 50%	N#Cc1ccc(O[C@H]2CC[C@H](NC(=O)c3ccc(N4CCC(CN5CCC(n6ccc7c(N8CCC(=O)NC8=O)cccc76)CC5)CC4)cn3)CC2)cc1Cl [EAR186, N-((1r,4r)-4-(3-Chloro-4-cyanophenoxy)cyclohexyl)-5-(4-((4-(4-(2,4-dioxotetrahydropyrimidin-1(2H)-yl)-1H-indol-1-yl)piperidin-1-yl)methyl)piperidin-1-yl)picolinamide]
≥ 50%	N#Cc1ccc(O[C@H]2CC[C@H](NC(=O)c3ccc(N4CCC(CN5CCC(CCn6ccc7c(N8CCC(=O)NC8=O)cccc76)CC5)CC4)nn3)CC2)cc1Cl [EAR179, N-((1r,4r)-4-(3-chloro-4-cyanophenoxy)cyclohexyl)-6-(4-((4-(2-(4-(2,4-dioxotetrahydropyrimidin-1(2H)-yl)-1H-indol-1-yl)ethyl)piperidin-1-yl)methyl)piperidin-1-yl)pyridazine-3-carboxamide hydrochloride]
≥ 50%	CC1CC(CN2CCC(n3ncc4c(N5CCC(=O)NC5=O)cccc43)CC2)CCN1c1ccc(C(=O)N[C@H]2CC[C@H](Oc3ccc(C#N)c(Cl)c3)CC2)nn1 (stereo partly drawn) [EAR229]
≥ 50%	N#Cc1ccc(O[C@H]2CC[C@H](NC(=O)c3ccc(N4CCC(CN5CC(n6ccc7c(N8CCC(=O)NC8=O)cccc76)C5)CC4)nn3)CC2)cc1Cl [EAR131, N-((1r,4r)-4-(3-chloro-4-cyanophenoxy)cyclohexyl)-6-(4-((3-(4-(2,4-dioxotetrahydropyrimidin-1(2H)-yl)-1H-indol-1-yl)azetidin-1-yl)methyl)piperidin-1-yl)pyridazine-3-carboxamide]
≥ 50%	N#Cc1ccc(O[C@H]2CC[C@H](NC(=O)c3ccc(N4CCC(CN5CCC(n6ccc7c(N8CCC(=O)NC8=O)ncnc76)CC5)CC4)cc3)CC2)cc1Cl [EAR195, N-((1r,4r)-4-(3-chloro-4-cyanophenoxy)cyclohexyl)-4-(4-((4-(4-(2,4-dioxotetrahydropyrimidin-1(2H)-yl)-7H-pyrrolo[2,3-d]pyrimidin-7-yl)piperidin-1-yl)methyl)piperidin-1-yl)benzamide hydrochloride]
≥ 50%	N#Cc1ccc(O[C@H]2CC[C@H](NC(=O)c3ccc(N4CC[C@@H](CN5CCC(n6ncc7c(N8CCC(=O)NC8=O)cccc76)CC5)C4)nn3)CC2)cc1Cl [EAR239, N-((1r,4R)-4-(3-chloro-4-cyanophenoxy)cyclohexyl)-6-((S)-3-((4-(4-(2,4-dioxotetrahydropyrimidin-1(2H)-yl)-1H-indazol-1-yl)piperidin-1-yl)methyl)pyrrolidin-1-yl)pyridazine-3-carboxamide]
≥ 50%	N#Cc1ccc(O[C@H]2CC[C@H](NC(=O)c3ccc(N4CCC(CN5CCC(n6ccc7c(N8CCC(=O)NC8=O)cccc76)CC5)CC4)nc3)CC2)cc1Cl [EAR13, N-((1r,4r)-4-(3-Chloro-4-cyanophenoxy)cyclohexyl)-6-(4-((4-(4-(2,4-dioxotetrahydropyrimidin-1(2H)-yl)-1H-indol-1-yl)piperidin-1-yl)methyl)piperidin-1-yl)nicotinamide]
≥ 50%	N#Cc1ccc(O[C@H]2CC[C@H](NC(=O)c3ccc(CN4CCC(n5ccc6c(N7CCC(=O)NC7=O)cccc65)CC4)cc3)CC2)cc1Cl [EAR180, N-((1r,4r)-4-(3-Chloro-4-cyanophenoxy)cyclohexyl)-4-((4-(4-(2,4-dioxotetrahydropyrimidin-1(2H)-yl)-1H-indol-1-yl)piperidin-1-yl)methyl)benzamide]
≥ 50%	N#Cc1ccc(O[C@H]2CC[C@H](NC(=O)c3ccc(C4CCN(C(=O)CN5CCC(n6ccc7c(N8CCC(=O)NC8=O)cccc76)CC5)CC4)cc3)CC2)cc1Cl [AR1, N-((1r,4r)-4-(3-Chloro-4-cyanophenoxy)cyclohexyl)-4-(1-(2-(4-(4-(2,4-dioxotetrahydropyrimidin-1(2H)-yl)-1H-indol-1-yl)piperidin-1-yl)acetyl)piperidin-4-yl)benzamide]
≥ 50%	N#Cc1ccc(O[C@H]2CC[C@H](NC(=O)c3ccc(N4CCC(CN5CCC(n6ccc7c(N8CCC(=O)NC8=O)cccc76)CC5)CC4)c(F)c3)CC2)cc1Cl [EAR206, N-((1r,4r)-4-(3-Chloro-4-cyanophenoxy)cyclohexyl)-4-(4-((4-(4-(2,4-dioxotetrahydropyrimidin-1(2H)-yl)-1H-indol-1-yl)piperidin-1-yl)methyl)piperidin-1-yl)-3-fluorobenzamide]
≥ 50%	N#Cc1ccc(O[C@H]2CC[C@H](NC(=O)c3cccc(OC4CCN(C(=O)CN5CCC(n6ccc7c(N8CCC(=O)NC8=O)cccc76)CC5)CC4)c3)CC2)cc1Cl [AR2, N-((1r,4r)-4-(3-Chloro-4-cyanophenoxy)cyclohexyl)-3-((1-(2-(4-(4-(2,4-dioxotetrahydropyrimidin-1(2H)-yl)-1H-indol-1-yl)piperidin-1-yl)acetyl)piperidin-4-yl)oxy)benzamide]
≥ 50%	N#Cc1ccc(O[C@H]2CC[C@H](NC(=O)c3ccc(N4CCC(CN5CCC[C@@H](n6ccc7c(N8CCC(=O)NC8=O)cccc76)C5)CC4)nn3)CC2)cc1Cl [EAR184, N-((1r,4r)-4-(3-Chloro-4-cyanophenoxy)cyclohexyl)-6-(4-(((S)-3-(4-(2,4-dioxotetrahydropyrimidin-1(2H)-yl)-1H-indol-1-yl)piperidin-1-yl)methyl)piperidin-1-yl)pyridazine-3-carboxamide hydrochloride]
